The values below come from patent US20050191315A1 (priority 2002, published 2005).

Common to all, as to type: cell-based, human
Test [1] relates to SEB transcytosis across T-84 cell monolayers.
Test [2] has as its system SEA transcytosis across T-84 cell monolayers.
Test [3] has as its system SEE transcytosis across T-84 cell monolayers.
Test [4] deals with TSST-1 transcytosis across T-84 cell monolayers.

Turning to KKKVTAQELD [SEB 152-161], in test [1], the “movement of SEB across the monolayers reduced by” value was 85%. The “transcytosis of SEA reduced” value in test [2] amounted to 73%. For the same sequence, the “transcytosis of SEE reduced” value in test [3] is listed as 68%. The “transcytosis of TSST-1 reduced” value in test [4] was 59%.
